This passage reports T/C results from PubChem BioAssay AID330 (DTP/NCI, 2004).

Values joined by “and” are separate entries in the source; they are usually repeats but may differ in a detail not shown here. Equal values may be shown once. Inconclusive results and toxic doses are left out.

In this experiment the test system is P388 leukemia ip, CD2F1 mice, survival T/C. Description: NCI In Vivo Anticancer Drug Screen. Data for tumor model P388 Leukemia (intraperitoneal) in CD2F1 (CDF1) mice. To be noted: endpoint: median survival time, higher = longer survival. The gist of the method:
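Mice carrying the transplanted tumor received test compound or vehicle. Survival was recorded in each group, and the value is the treated-group measurement divided by that of the vehicle-treated control group.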

Setting [1] is: dose: 50.0 mg/kg/injection, schedule: Q01DX005 (ip), vehicle: Klucel (hydroxypropylcellulose) (HPC).
[2] abbreviates: dose: 100.0 mg/kg/injection, schedule: Q01DX005 (ip), vehicle: Klucel (hydroxypropylcellulose) (HPC).
[3] abbreviates: dose: 200.0 mg/kg/injection, schedule: Q01DX005 (ip), vehicle: Klucel (hydroxypropylcellulose) (HPC).
Where [4] appears, read: dose: 50.0 mg/kg/injection, schedule: Q01DX009 (ip), vehicle: saline with Tween-80.
The mark [5] stands for this setting: dose: 100.0 mg/kg/injection, schedule: Q01DX009 (ip), vehicle: saline with Tween-80.
[6] abbreviates: dose: 200.0 mg/kg/injection, schedule: Q01DX009 (ip), vehicle: saline with Tween-80.
[7] abbreviates: dose: 50.0 mg/kg/injection, schedule: Q01DX005 (ip), vehicle: saline with Tween-80.
Setting [8] is: dose: 200.0 mg/kg/injection, schedule: Q01DX005 (ip), vehicle: saline with Tween-80.
Setting [9] is: dose: 400.0 mg/kg/injection, schedule: Q01DX009 (ip), vehicle: saline with Tween-80.
Where [10] appears, read: dose: 100.0 mg/kg/injection, schedule: Q04DX002 (ip), vehicle: saline with Tween-80.
Where [11] appears, read: dose: 200.0 mg/kg/injection, schedule: Q04DX002 (ip), vehicle: saline with Tween-80.

With `CC(C)=Cc1cc(CCC/C(C)=C/Cc2c(O)cc(C)c(C(=O)O)c2O)co1`, the T/C (dose: 4.5 mg/kg/injection, schedule: Q01DX005 (ip), vehicle: Klucel (hydroxypropylcellulose) (HPC)) was 100 % of control; the T/C (dose: 9.0 mg/kg/injection, schedule: Q01DX005 (ip), vehicle: Klucel (hydroxypropylcellulose) (HPC)) is 91 % of control; the T/C (dose: 18.0 mg/kg/injection, schedule: Q01DX005 (ip), vehicle: Klucel (hydroxypropylcellulose) (HPC)) is 92 % of control; the T/C (dose: 36.0 mg/kg/injection, schedule: Q01DX005 (ip), vehicle: Klucel (hydroxypropylcellulose) (HPC)) is 98 % of control; the T/C under setting [1] was 105 % of control; the T/C (dose: 72.0 mg/kg/injection, schedule: Q01DX005 (ip), vehicle: Klucel (hydroxypropylcellulose) (HPC)) is 88 % of control. For the same molecule, the T/C reads like this: under setting [2], 107 % of control; under setting [3], 98 % of control.
Take `O/N=C/c1ccc2c(c1)OCO2`: the T/C under setting [4] is 99 % of control, the T/C under setting [5] is 100 % of control and the T/C under setting [6] was 87 % of control.
In the case of `O=C(NCCCC1NC(=O)/C(=C(O)/C=C/C=C/c2ccccc2)C1=O)OCc1ccccc1` (stereo unspecified), the T/C is 88 % of control under setting [7] and 92 % of control under setting [8].
Consider `NC(=O)NCCSc1ccc(SCCNC(N)=O)nn1`, for which the T/C is 109 % of control (dose: 50.0 mg/kg/injection, schedule: Q01DX009 (ip), vehicle: Klucel (hydroxypropylcellulose) (HPC)); 100 % of control (dose: 100.0 mg/kg/injection, schedule: Q01DX009 (ip), vehicle: Klucel (hydroxypropylcellulose) (HPC)); 98 % of control (dose: 200.0 mg/kg/injection, schedule: Q01DX009 (ip), vehicle: Klucel (hydroxypropylcellulose) (HPC)); 90 % of control (dose: 400.0 mg/kg/injection, schedule: Q01DX009 (ip), vehicle: Klucel (hydroxypropylcellulose) (HPC)).
Take `COc1ccc(/C=C/C(C)=N/NC(N)=S)cc1`: the T/C (dose: 6.0 mg/kg/injection, schedule: Q01DX005 (ip), vehicle: Klucel + Tween-80) is 113 % of control and the T/C (dose: 12.0 mg/kg/injection, schedule: Q01DX005 (ip), vehicle: Klucel + Tween-80) is 104 % of control.
Turning to `O=C(/C=C/c1ccccc1OCc1cc2ccccc2nc1Cl)c1ccccc1`, the T/C reads like this: (dose: 100.0 mg/kg/injection, schedule: Q01DX001 (ip), vehicle: saline with Tween-80) 87 % of control; (dose: 200.0 mg/kg/injection, schedule: Q01DX001 (ip), vehicle: saline with Tween-80) 90 % of control; (dose: 400.0 mg/kg/injection, schedule: Q01DX001 (ip), vehicle: saline with Tween-80) 90 % of control.
Turning to `CCCCCCCCCCCCCCCC[N+](C)(C)CCOS(C)(=O)=O`, the T/C was 110 % of control (dose: 12.5 mg/kg/injection, schedule: Q01DX009 (ip), vehicle: saline with Tween-80) and 116 % of control (dose: 25.0 mg/kg/injection, schedule: Q01DX009 (ip), vehicle: saline with Tween-80).
For the molecule `Cc1cc(O)c(C(c2ccccn2)c2c(O)cc(C)[nH]c2=O)c(=O)[nH]1`, the T/C was 102 % of control under setting [4], 102 % of control under setting [5] and 105 % of control under setting [6].
Turning to `O=[N+]([O-])c1cccc2c(S(=O)(=O)O)cccc12`, the T/C (dose: 50.0 mg/kg/injection, schedule: Q04DX003 (ip), vehicle: saline) is 90 % of control; the T/C (dose: 100.0 mg/kg/injection, schedule: Q04DX003 (ip), vehicle: saline) was 100 % of control; the T/C (dose: 200.0 mg/kg/injection, schedule: Q04DX003 (ip), vehicle: saline) was 90 % of control.
With `CCCCCOCCCCC`, the T/C runs as follows: (dose: 25.0 mg/kg/injection, schedule: Q01DX005 (ip), vehicle: saline) 100 % of control; (dose: 50.0 mg/kg/injection, schedule: Q01DX005 (ip), vehicle: saline) 99 % of control; (dose: 100.0 mg/kg/injection, schedule: Q01DX005 (ip), vehicle: saline) 95 % of control; (dose: 200.0 mg/kg/injection, schedule: Q01DX005 (ip), vehicle: saline) 96 % of control.
With `CCN1CCCC(=O)C1`, the T/C under setting [7] is 96 % of control; the T/C (dose: 100.0 mg/kg/injection, schedule: Q01DX005 (ip), vehicle: saline with Tween-80) is 101 % of control; the T/C under setting [8] was 102 % of control.
`Cc1ccc(S(=O)(=O)NC(CC(=O)OCc2ccccc2)C(=O)OCc2ccccc2)cc1` (stereo unspecified): the T/C runs as follows: under setting [4], 101 % of control; under setting [5], 86 % of control; under setting [6], 90 % of control.
The matching figures for `Cc1ccc(C(=N)c2ccccc2Cc2cccc3ccccc23)c(C)c1`: 92 % of control, 94 % of control and 96 % of control.
Take `CC(C)NCCCNc1c2ccccc2nc2cccc([N+](=O)[O-])c12`: the T/C was 100 % of control and 86 % of control (dose: 0.09 mg/kg/injection, schedule: Q01DX009 (ip), vehicle: saline); 100 % of control and 97 % of control (dose: 0.19 mg/kg/injection, schedule: Q01DX009 (ip), vehicle: saline); 100 % of control and 106 % of control and 92 % of control (dose: 0.39 mg/kg/injection, schedule: Q01DX009 (ip), vehicle: saline); 105 % of control and 123 % of control and 90 % of control (dose: 0.79 mg/kg/injection, schedule: Q01DX009 (ip), vehicle: saline); 109 % of control (dose: 1.56 mg/kg/injection, schedule: Q01DX009 (ip), vehicle: saline).
On to `CC(=O)ON=C1C=CC(=C(C#N)c2ccccc2)C=C1`, for which the T/C under setting [4] is 104 % of control and the T/C under setting [5] is 122 % of control.
As to `CCCCNC(=O)CC(=O)NCCCC`, the T/C is, setting by setting: (dose: 25.0 mg/kg/injection, schedule: Q01DX005 (ip), vehicle: Klucel (hydroxypropylcellulose) (HPC)) 99 % of control; under setting [1], 100 % of control; under setting [2], 99 % of control; under setting [3], 100 % of control.
For `O=c1c2c([nH]c3ccccc13)CSC2`, the T/C was 100 % of control under setting [4], 100 % of control under setting [5], 97 % of control under setting [6] and 100 % of control under setting [9].
With `CCOC(=O)C(CC(C)C)NC(C)=O` (stereo unspecified), the T/C was 100 % of control under setting [10]; 105 % of control under setting [11]; 114 % of control (dose: 400.0 mg/kg/injection, schedule: Q04DX002 (ip), vehicle: saline with Tween-80).
Regarding `CC1=C(C2CO2)C(=O)C(C)=C(C2CO2)C1=O` (stereo unspecified), the T/C reads like this: (dose: 1.56 mg/kg/injection, schedule: Q04DX002 (ip), vehicle: Klucel (hydroxypropylcellulose) (HPC)) 95 % of control; (dose: 3.12 mg/kg/injection, schedule: Q04DX002 (ip), vehicle: Klucel (hydroxypropylcellulose) (HPC)) 93 % of control; (dose: 6.25 mg/kg/injection, schedule: Q04DX002 (ip), vehicle: Klucel (hydroxypropylcellulose) (HPC)) 88 % of control; (dose: 12.5 mg/kg/injection, schedule: Q04DX002 (ip), vehicle: Klucel (hydroxypropylcellulose) (HPC)) 89 % of control.
Turning to `Cc1c2ccccc2c(CSC(=N)N)c2ccccc12`, the T/C is, setting by setting: (dose: 0.44 mg/kg/injection, schedule: Q01DX009 (ip), vehicle: saline) 110 % of control; (dose: 0.66 mg/kg/injection, schedule: Q01DX009 (ip), vehicle: saline) 110 % of control; (dose: 1.0 mg/kg/injection, schedule: Q01DX009 (ip), vehicle: saline) 110 % of control; (dose: 1.47 mg/kg/injection, schedule: Q01DX009 (ip), vehicle: saline) 160 % of control; (dose: 1.5 mg/kg/injection, schedule: Q01DX009 (ip), vehicle: saline) 105 % of control and 120 % of control; (dose: 2.2 mg/kg/injection, schedule: Q01DX009 (ip), vehicle: saline) 160 % of control. In addition, the T/C was 165 % of control (dose: 3.3 mg/kg/injection, schedule: Q01DX009 (ip), vehicle: saline); 150 % of control and 185 % of control (dose: 5.0 mg/kg/injection, schedule: Q01DX009 (ip), vehicle: saline).
Regarding `CC(C)=CCC(OC(=O)C=C(C)C)c1cc(O)c2c(O)ccc(O)c2c1O.[Cu]` (stereo unspecified), the T/C reads like this: under setting [10], 101 % of control; under setting [11], 104 % of control.
As for `Clc1ccc(Oc2ccc(N3C=Nc4ccc(Oc5ccc(Cl)cc5)cc4C3)cc2)cc1`, the T/C is, setting by setting: under setting [5], 110 % of control; under setting [6], 100 % of control; under setting [9], 115 % of control.
`O=C(O)c1cc(C(=O)O)cc(N2C(=O)c3ccccc3C2=O)c1`: the T/C (dose: 50.0 mg/kg/injection, schedule: Q01DX009 (ip), vehicle: saline) was 100 % of control; the T/C (dose: 100.0 mg/kg/injection, schedule: Q01DX009 (ip), vehicle: saline) is 87 % of control; the T/C (dose: 200.0 mg/kg/injection, schedule: Q01DX009 (ip), vehicle: saline) is 89 % of control.
